Data reported in paper PMC12064818, “A general assay platform to study protein pharmacology using ligand-dependent structural dynamics” (Nature Communications, 2025).

Legend:
[1] = biological target: FLuc-N-HiBiT (firefly luciferase) (Photinus pyralis, UniProt P08659, form not given/L550V); assay: SDR assay, FLuc-N-HiBiT; conditions: substituted indoline (clade A'); for % Activity (max response, + ATP) / % Activity (max response, - ATP): SDR
FLuc-C-HiBiT = biological target: T1, FLuc-C-HiBiT (Photinus pyralis, UniProt P08659); assay: biochemical; conditions: enzyme activity, 10 uM ATP; read-out: IC50 or SDR50 (mM) / FLuc E
T1 construct: firefly luciferase with C-terminal HiBiT tag, E. coli expressed
T1 sequence (P08659 whole entry, looked up): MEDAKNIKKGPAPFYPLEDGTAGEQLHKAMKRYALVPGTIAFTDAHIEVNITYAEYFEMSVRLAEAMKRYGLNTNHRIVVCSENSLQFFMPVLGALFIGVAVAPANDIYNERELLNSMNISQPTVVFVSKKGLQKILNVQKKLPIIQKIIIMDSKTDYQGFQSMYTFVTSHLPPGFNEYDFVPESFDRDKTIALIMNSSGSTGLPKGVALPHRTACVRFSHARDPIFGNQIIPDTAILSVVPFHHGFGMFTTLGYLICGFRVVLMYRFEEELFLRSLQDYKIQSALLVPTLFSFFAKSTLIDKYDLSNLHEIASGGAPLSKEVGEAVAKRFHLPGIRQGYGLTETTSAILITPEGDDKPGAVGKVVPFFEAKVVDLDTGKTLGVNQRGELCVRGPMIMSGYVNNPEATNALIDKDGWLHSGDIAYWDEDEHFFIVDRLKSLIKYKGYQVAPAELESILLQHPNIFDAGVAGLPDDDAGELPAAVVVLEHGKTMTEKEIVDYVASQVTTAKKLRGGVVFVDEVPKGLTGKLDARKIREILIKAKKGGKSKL

Sequence of FLuc-N-HiBiT (firefly luciferase) (P08659 2-550 L550V, form open): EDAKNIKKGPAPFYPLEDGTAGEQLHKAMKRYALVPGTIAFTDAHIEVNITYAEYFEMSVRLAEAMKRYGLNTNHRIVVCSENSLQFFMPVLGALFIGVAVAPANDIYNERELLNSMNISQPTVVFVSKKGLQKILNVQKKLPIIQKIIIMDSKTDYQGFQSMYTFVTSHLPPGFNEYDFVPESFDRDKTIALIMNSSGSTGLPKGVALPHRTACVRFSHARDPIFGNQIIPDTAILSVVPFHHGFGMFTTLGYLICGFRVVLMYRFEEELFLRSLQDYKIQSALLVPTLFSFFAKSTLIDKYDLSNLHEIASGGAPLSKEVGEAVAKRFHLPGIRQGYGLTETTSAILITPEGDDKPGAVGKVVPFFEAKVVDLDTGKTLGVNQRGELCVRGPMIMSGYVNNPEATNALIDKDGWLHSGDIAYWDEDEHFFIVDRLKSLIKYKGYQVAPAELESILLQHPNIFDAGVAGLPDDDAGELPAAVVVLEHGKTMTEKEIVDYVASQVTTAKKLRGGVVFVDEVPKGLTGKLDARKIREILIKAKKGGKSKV

Structure (SMILES) | % Activity (max response, + ATP) ([1]; + ATP) [%] | % Activity (max response, - ATP) ([1]; - ATP) [%] | pSDR50 (clade A') ([1]; + ATP) | pSDR50 (clade A') ([1]; - ATP) | IC50 (FLuc-C-HiBiT) [nM]
O=C(O)c1cccc2c1CCN2C(=O)c1ccc(F)cc1 [NCGC00432675-01] | 81.35 | 20.90 | 5.89 | 4.16 | 1760
COc1ccc(NC(=O)N2CCc3c(C(=O)NCCN4CCCCCC4)cccc32)cc1 [NCGC00430136-01] | 125.00 | 26.27 | 6.10 | 3.93 | 556
CNC(=O)c1cccc2c1CCN2C(=O)Nc1ccc(C)cc1 [NCGC00430160-01] | 123.10 | 78.58 | 6.37 | 4.88 | 351
CCCNC(=O)c1cccc2c1CCN2C(=O)Nc1cccc(C)c1 [NCGC00430116-01] | 115.10 | 34.94 | 5.48 | 3.57 | 2480
O=C(O)c1cccc2c1CCN2C(=O)Nc1ccc(F)cc1 [NCGC00432687-01] | 127.90 | 102.18 | 8.36 | 4.92 | 3.51
CC(NC(=O)c1cccc2c1CCN2C(=O)Nc1ccccc1)c1cccnc1 (stereo not drawn) [NCGC00430104-01] | 120.10 | 19.02 | 5.53 | 4.71 | 1760
COc1ccc(NC(=O)N2CCc3c(C(=O)NCCCN4CCCC4=O)cccc32)cc1 [NCGC00430130-01] | 129.70 | 57.00 | 6.47 | 4.44 | 248
O=C(NCCc1cccnc1)c1cccc2c1CCN2C(=O)Nc1ccc(F)cc1 [NCGC00430192-01] | 119.50 | 23.04 | 6.44 | 2.73 | 221
CCOC(=O)C1CCN(C(=O)c2cccc3c2CCN3C(=O)Nc2ccccc2)CC1 [NCGC00430100-01] | 124.90 | 16.28 | 5.52 |  | 1760
Cc1cccc(NC(=O)N2CCc3c(C(=O)NC(C)(C)C)cccc32)c1 [NCGC00430124-01] | 30.08 | 45.88 | 3.69 | 4.31 | 8810
CCCCNC(=O)c1cccc2c1CCN2C(=O)Nc1ccccc1 [NCGC00430146-01] | 123.10 | 25.03 | 5.71 | 5.51 | 1570
CN(C)CCNC(=O)c1cccc2c1CCN2C(=O)Nc1ccccc1 [NCGC00430150-01] | 120.00 | 17.07 | 5.93 |  | 700
Cc1ccc(NC(=O)N2CCc3c(C(=O)NCCc4ccccn4)cccc32)cc1 [NCGC00430168-01] | 131.70 | 51.01 | 4.89 | 4.36 | 4420
CCN1CCN(CCNC(=O)c2cccc3c2CCN3C(=O)Nc2ccc(C)cc2)CC1 [NCGC00430114-01] | 125.50 | 93.19 | 5.79 | 4.11 | 1110

Other lines, results leading:

% Activity (max response, + ATP) ([1]; + ATP) [%] | % Activity (max response, - ATP) ([1]; - ATP) [%] | pSDR50 (clade A') ([1]; + ATP) | pSDR50 (clade A') ([1]; - ATP) | IC50 (FLuc-C-HiBiT) [nM] | Structure (SMILES)
126.00 | 37.35 | 6.80 | 4.62 | 111 | COc1ccc(NC(=O)N2CCc3c(C(=O)N(C)C)cccc32)cc1 [NCGC00430182-01]
125.10 | 31.17 | 5.60 | 3.60 | 1760 | COc1ccc(NC(=O)N2CCc3c(C(=O)N(C)Cc4ccco4)cccc32)cc1 [NCGC00430138-01]
127.00 | 89.24 | 7.11 | 5.17 | 49.5 | Cc1ccc(NC(=O)N2CCc3c(C(=O)NCc4ccco4)cccc32)cc1 [NCGC00430166-01]
122.30 | 17.23 | 6.38 | 5.03 | 279 | CN(Cc1ccccc1)C(=O)c1cccc2c1CCN2C(=O)Nc1ccccc1 [NCGC00430102-01]
117.40 | 20.13 | 6.53 | 2.52 | 197 | CN(Cc1ccco1)C(=O)c1cccc2c1CCN2C(=O)Nc1ccccc1 [NCGC00430106-01]
118.20 | 37.02 | 5.76 | 3.81 | 1110 | O=C(NCc1ccco1)c1cccc2c1CCN2C(=O)Nc1ccc(F)cc1 [NCGC00430142-01]
119.00 | 13.12 | 6.16 |  | 556 | COc1ccc(NC(=O)c2cccc3c2CCN3C(=O)Nc2ccc(F)cc2)c(C)c1 [NCGC00430188-01]
125.10 | 68.63 | 6.06 | 4.73 | 624 | COc1ccc(NC(=O)N2CCc3c(C(=O)NCc4ccncc4)cccc32)cc1 [NCGC00430180-01]
116.90 | 14.79 | 5.19 |  | 3940 | CN(C)C(=O)c1cccc2c1CCN2C(=O)Nc1ccc(F)cc1 [NCGC00430198-01]
